# Assay results published in patent publication US9546201B2, “MUC-1 cytoplasmic domain peptides as inhibitors of cancer” (DANA-FARBER CANCER INSTITUTE, INC., priority 2008, dated 2017).
# Where no end group is shown, it is not given here. [ ]: non-standard residue; d: D form.
# Assays:
# [1] = tested on: ZR-75-1 breast carcinoma cells; experiment: ZR-75-1 proliferation with GO-203 analogs (trypan blue exclusion); format: cell-based, human; conditions: 5 μM every day for 4 days
# Experimental: FIG. 10. Effect of different MUC1-CD CQC-region peptides on the growth of hormone-dependent breast carcinoma cells. To determine whether exposure to different MUC1-CD CQC-region containing peptides affect growth, ZR-75-1 breast carcinoma cells were treated with 5 μM of different peptides for 4 days and monitored for cell proliferation. […] Y-axis represents percent growth inhibition as compared to control untreated cells.
# FIG. 14. Effect of Shorter GO-203 peptides on proliferation of ZR-75-1 Breast Cancer Cells. Human ZR-75-1 breast cancer cells were grown in RPMI1640 supplemented with 10% heat-inactivated fetal bovine serum, 100 units/ml penicillin, 100 μg/ml streptomycin. Cells were treated with different peptides at 5 μM every day for four days and cell viability was determined by trypan blue exclusion.
# Multiple tumor cell lines (ZR-75-1 Hormone-dependent Breast Carcinoma; MDA-MB-231 Triple-Negative Breast Carcinoma; A549 Non-small Cell Lung Carcinoma; H-1975 Non-small Cell Lung Carcinoma) were grown in RPMI-1640 supplemented with 10% heat-inactivated fetal bovine serum, 100 units/mL penicillin and 100 μg/mL streptomycin and 2 mmol/L L-glutamine. Cells were treated separately with 5 μM of different analogs of GO-203 (FIG. 8) for 3 to 7 days and viability was determined by trypan blue exclusion. The proliferation of different cell lines was compared with cells treated with vehicle only.
# ZR-75-1 cells = experiment: In vitro cytotoxicity and combination assays (MTS, CombiTool combination index); format: cell-based, human
# Experimental: FIGS. 15A-D. Effects of GO-203 in combination with different anti-cancer drugs. ZR-75-1 cells were exposed to the indicated concentrations of Cisplatin (FIG. 15A), Doxorubicin (FIG. 15B), rh-TNF-α (FIG. 15C) and Taxol (FIG. 15D) alone and in combination with GO-203. The treatment was sequential for Cisplatin, Doxorubicin and Taxol where cells were exposed to these agents for 72 h followed by treatment with 5 μM of GO-203 for 72 h. In studies with rh-TNF, cells were exposed concomitantly to different concentrations of rh-TNF alone and in combination with 5 μM of GO-203 for 72 h. The MTS assay was used to determine the cell survival. For all panels, the Y-axis represents percent growth as compared to control untreated cells.
# FIG. 16. GO-203 is additive or synergistic with anti-cancer agents. The plots show combination indexes against different effect levels (fraction affected). The effect level was obtained by treating cells with the indicated combinations of anti-cancer drugs and GO-203. Y-axis represents—fold growth as compared to control untreated cells.
# Cells were seeded in a 96-well flat-bottomed microtiter plate (Fisher) at 1000 cells per well for a 6-day experiment or at 3000 cells per well for a 3-day experiment. The cells were then cultured for 24 h. Anti-cancer drugs and GO-203 were diluted to the indicated concentrations and added to the cells. GO-203 (5 μmol/L) was added every 24 h for 72 h. Cell viability was determined by adding MTS reagent to the cells and reading the absorbance at 490 nm by a microplate reader.
# The IC50 values for all the anti-cancer drugs were determined by non-linear regression analysis using Graphpad Prism (GraphPad Software, San Diego Calif.). The CombiTool computer program (version 2.001, IMB Jena Biocomputing Group) was used to calculate the combination index within a dose range in the presence of 5 μmol/L GO-203.
# The combination index (CI) values generated by the CombiTool program were plotted against the fraction affected by the drug combination. The CI values were close to 1 for Cisplatin and GO-203, indicating an additive interaction. The CI values obtained for Doxorubicin (25, 50, 100, 200 nM), Taxol (25, 50, 100 nM) and TNF (10, 20, 40 ng/ml) with GO-203 were less than 1, supporting a strong additive effect or synergism (FIGS. 15A-D and 16).
# His-MUC1-CD = biological target: T1, His-MUC1-CD (Homo sapiens, UniProt P15941); conditions: BIAcore analysis, Leng et al., 2007; read-out: dissociation constant (Kd) of MUC1-CD dimers; cited from earlier work
# T1 sequence (P15941 1184-1255): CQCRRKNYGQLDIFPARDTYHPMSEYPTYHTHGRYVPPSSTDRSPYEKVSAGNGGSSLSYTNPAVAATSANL
# [2] = tested on: DU145 prostate carcinoma cells; experiment: DU145 cell growth by MTT assay; format: cell-based; conditions: 5 μM, 4 days (FIG. 7)
# Experimental: FIG. 7. MUC1 7-mer inhibits prostate carcinoma. DU145 prostate carcinoma cells were treated with 5 μM CQC short (7-mer; SEQ ID NO: 53) or 5 μM CQC long (15-mer; SEQ ID NO: 63) peptides for 4 days. Cell growth was measured by MTT assay. The Y-axis represents percent growth inhibition compared to untreated cells (control).
# [3] = tested on: multiple carcinoma cell lines; experiment: Inventors' recent studies of MUC1 C-terminal peptides on carcinoma cell lines; format: cell-based; conditions: L-amino acid peptide
# Description: However, these MUC1-C-terminal peptides consists of L-amino acids. […] Consequently, they have generated an all-dextro form of the above described shorter MUC1 C-terminal peptide, in which the L-amino acids were changed to D-amino acids (GO-203). Moreover, to determine the minimum amino acid residues from the MUC1-C-terminal region that are required to retain the cell killing activity, they have also generated many different versions of GO-203 as described in FIG. 8.
# [4] = tested on: H-1975 non-small cell lung carcinoma cell line; conditions: 5 μM, 3 days
# Experimental: H-1975 non-small cell lung carcinoma cell line was grown in DMEM with 10% heat-inactivated fetal bovine serum with 100 units/mL penicillin, 100 μg/ml streptomycin and 2 mmol/L L-glutamine. Cells were re-seeded one day before treatments. Cells were treated with 5 μM GO-200-2B for 3 days and cell viability was determined by trypan blue exclusion. Y-axis represents percent viability as compared to control untreated cells.
# H1975 non-small cell lung carcinoma cells were treated with 5 μM of different MUC1-CD CQC-region peptides for 6 days. Viable cell number on day 6 was determined by trypan blue exclusion. […] Y-axis represents relative growth as compared to control untreated cells.
# Moreover, another non-small cell lung carcinoma cell line, H-1975, was treated with 5 μM GO-200-2B for 3 days and monitored for cell growth as well as cell death.
# Multiple tumor cell lines (ZR-75-1 Hormone-dependent Breast Carcinoma; MDA-MB-231 Triple-Negative Breast Carcinoma; A549 Non-small Cell Lung Carcinoma; H-1975 Non-small Cell Lung Carcinoma) were grown in RPMI-1640 supplemented with 10% heat-inactivated fetal bovine serum, 100 units/mL penicillin and 100 μg/mL streptomycin and 2 mmol/L L-glutamine. […] The proliferation of different cell lines was compared with cells treated with vehicle only.
compound,measurement,setting,value
GO-203: all-dextro form of the shorter MUC1 C-terminal peptide CQCRRKN (SEQ ID NO:53) ([dC][dQ][dC][dR][dR][dK][dN]; cysteine pairing not given here),growth of ZR-75-1 cells,[1],significant inhibition of growth
same,combination index (CI) with Cisplatin,ZR-75-1 cells; Cisplatin 72 h followed by 5 μM GO-203 for 72 h,~1
same,combination index (CI) with Doxorubicin,"ZR-75-1 cells; Doxorubicin 25, 50, 100, 200 nM, followed by 5 μM GO-203",less than 1
same,combination index (CI) with Taxol,"ZR-75-1 cells; Taxol 25, 50, 100 nM, followed by 5 μM GO-203",less than 1
same,combination index (CI) with TNF,"ZR-75-1 cells; rh-TNF 10, 20, 40 ng/ml concomitantly with 5 μM GO-203 for 72 h",less than 1
MUC1-CD: 72-amino acid MUC1 cytoplasmic domain (SEQ ID NO:1); forms dimers,Kd,His-MUC1-CD,33 nM
MUC1/CQC 7-mer: shorter MUC1-C-terminal peptide CQCRRKN of L-amino acids (7-mer; SEQ ID NO: 53),in vitro activity relative to the 15-mer,[2],as potent as the MUC1/CQC 15-mer
same,killing of tumor cells,[3],active in killing tumor cells
"GO-209: shorter GO-203 peptide, SEQ ID NO:54 (CQCR)",growth of ZR-75-1 cells,[1],significant inhibition of growth
CC(=O)N[C@@H](C)C(=O)N[C@@H](CCCCN)C(=O)N[C@@H](CCCCN)C(=O)N[C@@H](Cc1ccc(O)cc1)C(=O)N[C@@H](CC(C)C)C(=O)N[C@@]1(C)CCCC=CCCCC2(CCCC=CCCC[C@@](C)(C(=O)N[C@@H](CCCNC(=N)N)C(=O)N[C@@H](CCCCN)C(=O)N[C@@H](CC(N)=O)C(=O)N[C@@H](Cc3ccc(O)cc3)C(N)=O)NC(=O)[C@H](CS)NC(=O)[C@H](CCC(N)=O)NC(=O)[C@H](CS)NC2=O)NC(=O)[C@H](C)NC(=O)[C@H](CC(C)C)NC(=O)[C@H](C)NC1=O (stereo partly drawn) [GO-200-2B],cell death,[4],significant induction of cell death
"GO-207: shorter GO-203 peptide, SEQ ID NO:4 (CQCRRK)",growth of ZR-75-1 cells,[1],significant inhibition of growth
"GO-208: shorter GO-203 peptide, SEQ ID NO:50 (CQCRR)",growth of ZR-75-1 cells,[1],significant inhibition of growth
